According to patent US9051579B2, “Herbicide-tolerant plants through bypassing metabolic pathway” (Bayer S.A.S., priority 2000, dated 2015):

How the values were obtained:
HPP oxidase (HPPO) = experiment: HPP oxidase activity assay (colorimetric / HPLC), influence of added compounds; type: biochemical, Arthrobacter globiformis; details: 115 ppm
Text: The enzyme reaction is stopped by adding 2,4-dinitrophenylhydrazine (2,4-DNPH), in solution in 2 M HCl. The 2, 4-DNPH reacts with the ketone function in the alpha position of a carboxylic function (example: HPP). […] When the HPP is completely converted to 4-HPA during the enzyme reaction, the hydrazone cannot form, and the characteristic yellow color of 2,4-DHPA is therefore obtained in basic medium. If the HPP is not completely converted to 4-HPA during the enzyme reaction, the formation of hydrazone is possible. These hydrazones are brown in color in basic medium. A variation in color between these two extremes is obtained as a function of the amount of HPP consumed. The absorption measurements are carried out at 445 or 450 nm. In order to make this assay more easy to handle, we adapted it to the 96-well microplate format. The reaction mixture comprises GSH (900 μM); HPP (135 μM); TPP (1.8 mM); MgCl2 (4.5 mM); FAD (4 μM); potassium phosphate buffer (90 mM) pH 7.4. The mixture is kept on ice. 50 μL of the test fraction and 150 μL of reaction mixture are placed in each well. After 20 min at 30° C., the enzyme reaction is stopped with 13 μL of 2,4-DNPH solution (0.1% in 2 M HCl). The mixture is left to react for 20 min at ambient temperature. […] To prepare the standard range, reaction mixtures with varying concentrations of HPP are prepared. […]

Arabidopsis seeds = experiment: Germination of Arabidopsis seeds on MS medium with DKN, with or without homogentisate; type: in vivo
Experimental: 1 Murashige and Skoog medium (T. Murashige and F. Skoog, 1962. A revised medium for a rapid growth and bioassays with tobacco tissue culture. Physiol. Plant. 15, 473-479), control experiment for germination
2 MS medium plus DKN at a dose of 1 ppm
3 MS medium plus DKN at the same dose+homogentisate at a concentration of 5 mM.

[1] = medium 2: MS medium plus DKN at 1 ppm

Compound	inhibition of the HPPO (HPP oxidase (HPPO))	germination and pigmentation of the plantlet (Arabidopsis seeds; [1])	survival of the plantlets (Arabidopsis seeds; [1])	germination and pigmentation of the plantlet (Arabidopsis seeds; medium 3: MS medium plus DKN 1 ppm + homogentisate 5 mM)	later development of the plants (Arabidopsis seeds; medium 3: MS medium plus DKN 1 ppm + homogentisate 5 mM, as homogentisate in the medium decreases)
CC(C)C1(C)N=C(c2ncccc2C(=O)O)NC1=O (centres unmarked) [imazapyr]	not inhibited				
CS(=O)(=O)c1cc(C(F)(F)F)ccc1C(=O)C(C#N)C(=O)C1CC1 (centres unmarked) [DKN]		germination occurs, but the plantlet which emerges is white, the two cotyledons exhibiting no pigmentation	die in a few days	germination occurs normally, the cotyledons are clearly green	the first symptoms of bleaching appear and plant growth stops, they end up dying
